# Data taken from the OPERA property sets (Mansouri et al. 2018).
Structure (SMILES),logP,further results
COC(=O)c1c(Cl)c(Cl)c(C(=O)OC)c(Cl)c1Cl,4.28,solubility (25 °C): 0.00151 mM
CCc1nn(C)c(C(=O)NCc2ccc(C(C)(C)C)cc2)c1Cl,4.61,–
CCS(=O)(=O)c1cccnc1S(=O)(=O)NC(=O)Nc1nc(OC)cc(OC)n1,–,logD (pH 5.0): 0.29
O=C(O)c1c(Cl)c(Cl)c(Cl)c(Cl)c1C(O)=Nc1cccc(Cl)c1Cl,–,solubility (26 °C): 0.0313 mM
CC(C)Oc1cccc(NC(=O)c2ccccc2C(F)(F)F)c1,–,solubility (20 °C): 0.0244 mM
Clc1cccc(C(Cl)(Cl)Cl)n1,–,solubility (25 °C): 0.233 mM
O=C(Nc1ccc(Cl)c(Cl)c1)Nc1cc(Cl)ccc1Oc1ccc(Cl)cc1S(=O)(=O)[O-].[Na+],1.89,–
O=S(=O)(c1ccc(Cl)cc1)c1cc(Cl)c(Cl)cc1Cl,4.61,solubility (20 °C): 0.000219 mM
O=C(Nc1ccc(Cl)cc1C(O)c1ccccc1)c1ccncc1 (stereo not drawn),3.13,–
CC(C)(C)N(NC(=O)c1ccc(Cl)cc1)C(=O)c1ccccc1,3.22,solubility: 0.0363 mM
CCCCOCC(C)OC(=O)COc1nc(F)c(Cl)c(N)c1Cl (stereo not drawn),4.17,–
CCSCc1ccccc1OC(=O)NC,2.04,–
COc1ccc(-c2ccccc2)cc1NNC(=O)OC(C)C,–,solubility (20 °C): 0.0125 mM
Clc1ccc(CSC(Cn2cncn2)=Nc2ccc(Cl)cc2Cl)cc1,4.94,–
COc1cc(OC)nc(NC(=O)NS(=O)(=O)c2c(-c3nnn(C)n3)cnn2C)n1,0.65,"solubility (pH 7.0, 20 °C): 2.47 mM"
CCOC(=O)C1=NN(c2ccc(Cl)cc2Cl)C(C)(C(=O)OCC)C1 (stereo not drawn),3.83,"solubility (pH 6.2, 20 °C): 0.0536 mM"
CN(C(O)=NC(C)(C)c1ccccc1)c1ccccc1,3.01,–
C/C(=N\NC(=O)Nc1cc(F)cc(F)c1)c1ncccc1C(=O)O,–,solubility: 0.188 mM
CCCCCCCCSC(=O)Oc1cc(Cl)nnc1-c1ccccc1,–,solubility (20 °C): 0.00396 mM
CCCSC(=O)N(CCC)CCC,3.84,solubility (20 °C): 0.443 mM
CO/C=C(/C(=O)OC)c1ccccc1Oc1cc(Oc2ccccc2C#N)ncn1,2.5,solubility (20 °C): 0.0149 mM
COC(=O)[C@@H](C)N(C(=O)c1ccccc1)c1ccc(F)c(Cl)c1,3,–

Structure (SMILES),logP,further results
CCc1cccc(C)c1N(COC(C)C)C(=O)CCl,3.5,–
COP(=O)(OC)OC1=C(Cl)C2C=CCC12 (stereo not drawn),2.32,–
CN(C)NC(=O)CCC(=O)O,-1.5,–
CCOC(=O)CSc1nc(C(C)(C)C)nn1C(=O)N(C)C,2.69,"solubility (pH 7.0, 25 °C): 1.38 mM"
CC1=NNC(=O)N(/N=C/c2cccnc2)C1,-0.18,solubility (25 °C): 1.34 mM
COP(N)(=O)SC (stereo not drawn),-0.8,–
CCS(=O)CCSP(=O)(OC)OC (stereo not drawn),-0.74,–
COc1cc(OC)n2nc(S(=O)(=O)Nc3c(Cl)ccc(C)c3Cl)nc2n1,3.08,solubility (20 °C): 0.478 mM
CCNP(=S)(OC)O/C(C)=C/C(=O)OC(C)C (stereo not drawn),3.82,–
CCCCCC(C)OC(=O)COc1ccc(Cl)c2cccnc12 (stereo not drawn),5.03,solubility (25 °C): 0.00176 mM
C#CCN1CC(=O)N(COC(=O)[C@@H]2[C@@H](C=C(C)C)C2(C)C)C1=O,2.9,solubility (25 °C): 0.294 mM
CC(C)(SC(=O)N1CCCCC1)c1ccccc1,4.02,solubility (25 °C): 0.0759 mM
CCCCC(O)(Cn1cncn1)c1ccc(Cl)cc1Cl (stereo not drawn),3.9,–
Cc1c(COC(=O)[C@@H]2[C@H](/C=C(\Cl)C(F)(F)F)C2(C)C)cccc1-c1ccccc1 (racemic),–,solubility: 0.000236 mM
COc1cc(OC)nc(Oc2cccc(Oc3nc(OC)cc(OC)n3)c2C(=O)[O-])n1.[Na+],-1.03,–
O=CNC(N1CCN(C(NC=O)C(Cl)(Cl)Cl)CC1)C(Cl)(Cl)Cl (stereo not drawn),2.2,–
COc1cc(OC)nc(Sc2cccc(Cl)c2C(=O)[O-])n1.[Na+],–,logD (pH 5.0): 0.6
CCOP(=S)(Oc1cnc(C(C)(C)C)nc1)OC(C)C (stereo not drawn),–,"solubility (pH 7.0, 20 °C): 0.0173 mM"
CNC(=O)ON=C(SC)C(=O)N(C)C,–,solubility (25 °C): 1280 mM
CCN(CC)C(=O)n1cnc(S(=O)(=O)c2c(C)cc(C)cc2C)n1,3.21,–
O=C(Nc1ccccc1)Nc1ccnc(Cl)c1,3.2,–
CCCOC(=O)NCCCN(C)C,–,"solubility (pH 7.0, 20 °C): 4780 mM"

Structure (SMILES),logP,further results
O=C(NC(=O)c1c(F)cccc1F)Nc1cc(Cl)c(OC(F)(F)C(F)C(F)(F)F)cc1Cl (stereo not drawn),5.12,–
CCCN(CC)CC1COC2(CCC(C(C)(C)C)CC2)O1 (stereo not drawn),–,"solubility (pH 7.0, 20 °C): 1.58 mM"
CC(Oc1ccc(Oc2ncc(C(F)(F)F)cc2Cl)cc1)C(=O)O (stereo not drawn),–,"solubility (pH 2.6, 25 °C): 0.12 mM"
CS(=O)(=O)c1cc(C(F)(F)F)ccc1C(=O)c1cnoc1C1CC1,2.32,"solubility (pH 5.5, 20 °C): 0.0173 mM"
CC1(C)CCC(Cc2ccc(Cl)cc2)C1(O)Cn1cncn1 (stereo not drawn),3.85,–
O=C(NC(=O)c1ccccc1Cl)Nc1ccc(OC(F)(F)F)cc1,4.91,solubility (20 °C): 6.97e-05 mM
Cc1ccc(N(SC(F)(Cl)Cl)S(=O)(=O)N(C)C)cc1,3.9,solubility (20 °C): 0.00259 mM
C[C@H](Oc1ccc(Oc2nc3ccc(Cl)cc3o2)cc1)C(=O)O,–,"solubility (pH 5.1, 20 °C): 0.809 mM"
O=C(NC(=O)c1c(F)cccc1F)Nc1ccc(Cl)c(Oc2ncc(C(F)(F)F)cc2Cl)c1,–,solubility (25 °C): < 3.95e-05 mM
CC1CCCCC1NC(=O)Nc1ccccc1 (stereo not drawn),3.8,–
CC(C)OC(=O)C(C(=O)OC(C)C)=C1SCCS1,–,solubility (25 °C): 0.175 mM
C=C/C=C\CC1=C(C)[C@@H](OC(=O)[C@@H]2[C@@H](/C=C(\C)C(=O)OC)C2(C)C)CC1=O,4.3,–
CCSCCSP(=S)(OC)OC,3.15,–
CNC(=O)CSP(=O)(OC)OC,-0.74,–
FC(F)(F)C(=NOCC1OCCO1)c1ccc(Cl)cc1,2.9,solubility (20 °C): 0.0969 mM
CC(C)(C)C(O)/C(=C\c1ccc(Cl)cc1)n1cncn1 (stereo not drawn),3.67,–
CC1(C)CCC(=Cc2ccc(Cl)cc2)C1(O)Cn1cncn1 (stereo not drawn),3.29,–
CC1(C)[C@H](C(=O)O[C@H](C#N)c2cccc(Oc3ccccc3)c2)[C@@H]1/C=C\C(=O)OC(C(F)(F)F)C(F)(F)F,–,solubility (25 °C): 3.69e-05 mM
CC(C)NC(=O)N1CC(=O)N(c2cc(Cl)cc(Cl)c2)C1=O,3,–
C=CCOC1=NS(=O)(=O)c2ccccc21,–,solubility: 0.672 mM
CN(C)c1nc(=O)n(C2CCCCC2)c(=O)n1C,–,solubility (25 °C): 131 mM
COc1cccc(C(=O)NN(C(=O)c2cc(C)cc(C)c2)C(C)(C)C)c1C,3.7,solubility: < 0.00271 mM

Structure (SMILES),logP,further results
C#CCOc1cc(-n2nc(C(C)(C)C)oc2=O)c(Cl)cc1Cl,3.95,solubility (20 °C): 0.00108 mM
COC(=O)c1c(Cl)nn(C)c1S(=O)(=O)NC(=O)Nc1nc(OC)cc(OC)n1,–,"solubility (pH 5.0, 20 °C): 0.0343 mM; logD (pH 7.0): -0.02"
CCCCOC(=O)C1(O)c2ccccc2-c2ccccc21,3.7,–
ClC=CCCl (mixture of isomers),2.04,–
CCCOCCN(C(=O)CCl)c1c(CC)cccc1CC,4.08,solubility (20 °C): 0.16 mM
CC(C)(COCc1cccc(Oc2ccccc2)c1)c1ccc(OC(F)(F)Br)cc1,–,solubility (25 °C): 1.05e-07 mM
COc1nn(CSP(=S)(OC)OC)c(=O)s1,2.2,–
OC(c1ccc(Cl)cc1)(c1ccc(Cl)cc1)C(Cl)(Cl)Cl,–,solubility (25 °C): 0.00277 mM
CCCN(CCC)c1c([N+](=O)[O-])cc(C(F)(F)F)c(N)c1[N+](=O)[O-],4.1,–
Cc1ccn2nc(S(=O)(=O)Nc3c(F)cccc3F)nc2n1,–,solubility (pH 2.5): 0.15 mM
C=CCC1=C(C)C(OC(=O)C2C(C=C(C)C)C2(C)C)CC1=O (stereo not drawn),–,solubility (25 °C): 0.0152 mM
CCC(C)Nc1c([N+](=O)[O-])cc(C(C)(C)C)cc1[N+](=O)[O-] (stereo not drawn),4.93,–
CCN(CC)C(=O)C(Cl)=C(C)OP(=O)(OC)OC,0.79,–
CCOC(=O)[C@@H](C)Oc1ccc(Oc2nc3ccc(Cl)cc3o2)cc1,4.58,–
CC(C)=C1OC(=O)N(c2cc(OC3CCCC3)c(Cl)cc2F)C1=O,–,solubility (25 °C): 0.000611 mM
CON=C(C)c1cccc(Oc2nc(OC)cc(OC)n2)c1C(=O)OC,2.84,solubility (20 °C): 0.249 mM
COc1cc(OC)nc(N=C(O)NS(=O)(=O)N(C)S(C)(=O)=O)n1,1.63,–
O=C(O)c1ccccc1C(=O)Nc1ccccc1,–,solubility (20 °C): 0.0829 mM
O=C(NC(=O)c1c(F)cccc1F)Nc1cc(Cl)c(OC(F)(F)C(F)F)c(Cl)c1,5.68,–
O=C1c2ccccc2C(=O)N1SC(Cl)(Cl)Cl,–,solubility (25 °C): 0.0027 mM
Oc1ccc(Cl)cc1Cc1cc(Cl)ccc1O,–,solubility (25 °C): 0.111 mM
NC(=O)C1(N2C(=O)c3cccc(Cl)c3C2=O)CCCCC1,–,solubility (25 °C): 0.0978 mM

Structure (SMILES),logP,further results
CCSC(=O)COc1ccc(Cl)cc1C,4.05,–
CCCCOCN(C(=O)CCl)c1c(CC)cccc1CC,–,solubility (20 °C): 0.0688 mM
CCN(CC)c1nc(C)cc(OP(=S)(OC)OC)n1,–,"solubility (pH 7.3, 20 °C): 0.0455 mM"
C=C/C=C\CC1=C(C)[C@@H](OC(=O)[C@@H]2[C@@H](C=C(C)C)C2(C)C)CC1=O,5.9,–
C#CCOc1cc(-n2nc3n(c2=O)CCCC3)c(Cl)cc1Cl,–,solubility (pH 7.0): 0.0473 mM
C/C=C(\C)C(=O)O[C@H]1C[C@@H](OC(C)=O)[C@@]2(C(=O)OC)CO[C@H]3[C@@H](O)[C@@](C)([C@]45O[C@@]4(C)[C@H]4C[C@@H]5O[C@@H]5OC=C[C@@]54O)[C@H]4[C@]1(CO[C@]4(O)C(=O)OC)[C@@H]32,1.09,–
CCOP(=S)(OCC)Oc1ncn(-c2ccccc2)n1,3.34,"solubility (pH 7.0, 20 °C): 0.0992 mM"
Cc1c(F)c(F)c(COC(=O)C2C(/C=C(\Cl)C(F)(F)F)C2(C)C)c(F)c1F (stereo not drawn),6.5,–
C=C(C)CN(CC)c1c([N+](=O)[O-])cc(C(F)(F)F)cc1[N+](=O)[O-],–,"solubility (pH 7.0, 25 °C): 0.000735 mM"
Cc1cccc(C)c1N(C(=O)CCl)C1CCOC1=O (stereo not drawn),1.39,solubility (20 °C): 0.518 mM
CCCN(CCC)c1c([N+](=O)[O-])cc(C(F)(F)F)cc1[N+](=O)[O-],–,"solubility (pH 5.0, 25 °C): 0.000701 mM"
O=C1C2CC=CCC2C(=O)N1SC(Cl)(Cl)Cl (stereo not drawn),2.8,–
CCNc1nc(Cl)nc(N(CC)CC)n1,–,solubility (25 °C): 0.0871 mM
O=C(NC(=O)c1c(F)cccc1F)Nc1cc(Cl)c(F)c(Cl)c1F,–,solubility (23 °C): 5.12e-05 mM
CCCCOCCOCCOCc1cc2c(cc1CCC)OCO2,4.75,solubility (25 °C): 0.0422 mM
CC[C@H]1O[C@]2(CC[C@@H]1C)C[C@@H]1C[C@@H](CC=C(C)C[C@@H](C)C=CC=C3CO[C@@H]4[C@H](O)C(C)=C[C@@H](C(=O)O1)[C@]34O)O2,5.9,solubility (20 °C): 0.0133 mM
C[Si](Cn1cncn1)(c1ccc(F)cc1)c1ccc(F)cc1,–,"solubility (pH 7.2, 20 °C): 0.171 mM"
COc1cc(OC)nc(N=C(O)NS(=O)(=O)c2c(Cl)nc3ccccn23)n1,–,"solubility (pH 5.1, 25 °C): 0.0163 mM"
Cc1ccc(NC(O)=NC(C)(C)c2ccccc2)cc1,–,solubility (20 °C): 0.00447 mM
